Assay results: patent publication US20180094248A1, “Necroptosis Signaling as a Therapeutic Target for Alzheimer's Disease” (Arizona Board of Regents on behalf of Arizona State …, priority 2016, published 2018)

Columns and labels:
[1] = system: primary cortical neurons from wild type littermate mice; test: NeuN count of wild type primary cortical neurons treated with Nec-1S or vehicle; type: cell-based, mouse; details: 10 μM at DIV 7 and DIV 11
Experimental: To probe for a direct link between necroptosis and neuronal loss in AD, we plated primary cortical neurons from APP/PS1 and wild type littermate mice. After seven days in vitro (DIV), neurons were treated with 10 μM of the necroptosis inhibitor 7-Cl-O-necrostatin (Nec15) or vehicle. Treatment was repeated at DIV 11. We then fixed neurons at DIV 11 and 15, and stained them for NeuN to count total number of neurons. […] To determine changes in necroptosis, we isolated proteins from neurons of the same four groups and measured the levels of total and phosphorylated MLKL by western blot.
Primary neuronal cultures—For the GFP experiments: Primary neurons were isolated from APP/PS1 and NonTg Po pups. The tissue was then dissociated in Neurobasal media (Thermo Fisher Scientific) and spun down for 3 minutes at 5,000 g at 4° C. The supernatant was discarded and the pellet was re-suspended in 1 ml of Neurobasal media supplemented with B27 (Thermo Fisher Scientific). […] Neurons were treated for a total of 15 days and the GFP fluorescence was measured every 4 days. […] All fluorescent measurements (excitation 488 nm, emission 509 nm) were performed using the Synergy HT multi-mode microplate reader with the Gen5 software (BioTek, Winooski, Vt.). The reader was pre-heated to 37° C. to maintain optimal conditions for the neurons during the measurements. […]

phosphorylated MLKL = test: Western blot of total and phosphorylated MLKL in primary neurons (AAV-GFP experiment); type: cell-based, mouse
Experimental: At DIV 1, we infected primary cortical neurons isolated from APP/PS1 and wild type mice with an adeno-associated virus (AAV) expressing the green fluorescent protein (GFP) under the neuronal promotor CamKII. At DIV 7 and 11, neurons from the two genotypes were treated with 10 μM Nec1S or vehicle. We then measured GFP fluorescence in live cells as an indication of live neurons.
Western blot and ELISA: The proteins were run using reducing conditions in precast gels (Thermo Fisher Scientific) and transferred to nitrocellulose membranes (iBlot, Thermo Fisher Scientific). […] The blots were then washed with TBS-T, and imaged/quantified using a LICOR Odyssey CLx (LI-COR Biosciences) attached to a Dell computer (OptiPlex 7010) running Windows 7 and Image Studio (version 1.0.11, LI-COR Biosciences). […]
Primary neuronal cultures—For the GFP experiments: Primary neurons were isolated from APP/PS1 and NonTg Po pups. […] Neurons were treated for a total of 15 days and the GFP fluorescence was measured every 4 days. […] All fluorescent measurements (excitation 488 nm, emission 509 nm) were performed using the Synergy HT multi-mode microplate reader with the Gen5 software (BioTek, Winooski, Vt.). The reader was pre-heated to 37° C. to maintain optimal conditions for the neurons during the measurements. […]

## CN1C(=O)NC(Cc2c[nH]c3c(Cl)cccc23)C1=O (stereo not drawn) [Nec1S, 5-((7-chloro-1 H-indol-3-yl)methyl)-3-methylimidazolidine-2,4-dione]
[1]
  decrease in the number of wild type neurons: did not significantly affect the decrease in the number of wild type neurons
Phosphorylated MLKL; DIV 11, all four groups, AAV-GFP experiment
  pMLKL level: not detectable
Phosphorylated MLKL; DIV 15, 10 μM, APP/PS1-veh group vs the other three groups incl. APP/PS1-Nec1S
  ratio pMLKL/MLKL: statistically different compared to the other three groups
